# Experimental data reported in patent US7879791B2 (Medical College of Georgia Research Institute, Inc., priority 1997, dated 2011).
# Tests used:
# [1] = patients / individuals, literature reports; cited from earlier work
# MB49 tumor cells = test: MB49 epithelial carcinoma in syngeneic hosts; format: in vivo, mouse
# Method: In light of the data herein showing that the allogeneic fetus is able to protect itself against attack by the maternal immune system through expression of IDO, and given the expression of IDO in tumors as cited above, it was tested whether a similar mechanism allowed tumor cells to evade immune attack. The MB49 epithelial carcinoma model was chosen for proof of concept because it is an aggressive, lethal malignancy when innoculated into syngeneic hosts, but it can be rendered susceptible to immune attack if the host's immune system is suitably activated (Chen, et al. 1997 J. Immunol. 159, 351-359). […] MB49 tumor cells (1×10^6) were injected subcutaneously into syngeneic C57/B16 hosts. […] By day 10, all animals had evidence of initial tumor formation (palpable mass). By day 15, control animals were visibly ill and the experiment was terminated. Animals were sacrificed on day 11-15 for histologic examination.
# [2] = tested on: tryptophan transport system in MCSF-derived macrophages; test: [3H]tryptophan uptake in MCSF-derived macrophages with competing unlabeled amino acids; format: cell-based, human; conditions: for effectiveness as competitor for tryptophan uptake compared with phenylalanine: titration studies
# Method: The graph compares fresh monocytes, MCSF-derived macrophages (day 7), and MCSF-derived macrophages activated for the preceding 24 hrs with IFNγ. All assays were performed in the presence of 140 mM NaCl. […] A logarithmic scale is used to permit comparison.
# Macrophages were cultured for 7 days in MCSF and activated during the last 24 hrs with IFNγ.
# This sodium-independent system was then characterized using cross-competition studies.
# MCSF-derived macrophages [3] = test: Elimination kinetics of tryptophan in co-cultures of MCSF-derived macrophages and mitogen-activated T cells; format: cell-based, human; conditions: when tryptophan was not limiting
# Method: MCSF-derived macrophages were cultured for 24 hrs with autologous T cells, with or without anti-CD3 mitogen. The medium was replaced with fresh medium, and supernatant from replicate cultures harvested at the times shown. […] Error bars (less than 10%) are omitted for clarity.
# Depletion of tryptophan is rapid. Macrophages were co-cultured with T cells and mitogen for 24 hrs to allow up-regulation of the tryptophan-depletion pathway, then fresh medium was added and the kinetics of elimination measured. […] This rapid rate of tryptophan depletion could not be attributed to consumption by cellular metabolism.
# T cells = test: T cell proliferation (thymidine incorporation) in co-culture conditioned medium with tryptophan titrated back; format: cell-based, human
# Method: FIG. 1 is a graph of thymidine incorporation (cpm) by T cells in the presence of supplemental amino acids. […] Human monocytes were allowed to differentiate into macrophages then co-cultured with mitogen-activated T cells (anti-CD3). Fresh PBMC were then suspended in this medium and activated with additional anti-CD3. […] Control cultures received fresh medium. Proliferation was measured by 4 hr thymidine incorporation after 72 hrs. Error bars show SD.
# Fresh lymphocytes were suspended in conditioned medium and activated with additional mitogen. Care was taken to exclude all traces of fresh medium.
# IDO [4] = target: T1, IDO (Homo sapiens, UniProt P14902); test: Macrophage-mediated suppression of T cell proliferation in co-cultures of MCSF-derived macrophages and T cells with anti-CD3; format: cell-based; parameters: endogenous in cells; host or cells: MCSF-derived human monocyte-derived macrophages co-cultured with T cells; conditions: 10x normal tryptophan
# Method: Proliferation was measured after 72 hrs by thymidine incorporation. The level of background proliferation contributed by macrophages is indicated by the dotted line. In FIG. 4B, macrophages were seeded at both low density (5×10^4/well) and high density (2×10^5/well).
# Target sequence in this assay (P14902 whole entry): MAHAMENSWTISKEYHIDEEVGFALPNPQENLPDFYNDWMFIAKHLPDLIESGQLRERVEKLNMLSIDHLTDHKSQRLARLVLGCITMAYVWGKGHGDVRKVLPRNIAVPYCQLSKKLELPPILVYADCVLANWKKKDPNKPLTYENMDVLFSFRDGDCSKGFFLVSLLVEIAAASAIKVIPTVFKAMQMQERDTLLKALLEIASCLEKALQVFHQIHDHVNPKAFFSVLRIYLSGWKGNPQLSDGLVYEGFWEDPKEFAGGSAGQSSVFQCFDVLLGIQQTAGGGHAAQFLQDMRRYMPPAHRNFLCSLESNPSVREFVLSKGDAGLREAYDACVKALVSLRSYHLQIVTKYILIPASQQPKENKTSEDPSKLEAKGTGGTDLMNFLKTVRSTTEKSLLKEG
# MCSF-derived macrophages [5] = test: Induction of IDO activity (tryptophan degradation) in MCSF-derived macrophages by IFNγ with or without CD40L; format: cell-based, human
# From the text: MCSF-derived macrophages were activated for 24 hrs with various concentrations of recombinant IFNγ, in the presence or absence of recombinant CD40-L trimer. […] SD was less than 10%.
# The response of MCSF-derived macrophages to IFNγ in the presence or absence of recombinant CD40L (prepared as a homo-trimer in order to signal via CD40 in soluble form, gift of Bill Fanslow, Immunex Corporation) was compared.
# IDO [6] = target: T1, IDO; parameters: host or cells: tumor xenografts in IFNγ-treated animals; conditions: IFNγ-treated animals; cited from earlier work
# Target sequence in this assay (P14902 whole entry, species assumed): as the sequence (P14902 whole entry) above
# [7] = group n = 7, pellets 0.9 mg/hr, 7-day release
molecule,measurement,setting,value
CC(n1cc(C[C@H](N)C(=O)O)c2ccccc21)n1cc(C[C@H](N)C(=O)O)c2ccccc21 [1-1′ ethylidenebis-[tryptophan]],autoimmune or adverse illness reported,[1],eosinophilia-myalgia syndrome
Cn1cc(C[C@H](N)C(=O)O)c2ccccc21 [1-methyl-tryptophan],continuation of responses after the period of inhibitor administration,MB49 tumor cells; administration days 1-7,4 to 7 days
same,histology (day 15),MB49 tumor cells; day 15,"apoptosis, necrosis,"
same,complete responses,MB49 tumor cells; [7],1
same,partial responses,MB49 tumor cells; [7],6
same,tumor growth compared to vehicle control,"MB49 tumor cells; immunocompetent, syngeneic hosts",significantly reduced tumor growth
same,performance status,"MB49 tumor cells; mouse, in vivo",normal
same,visible metastases,"MB49 tumor cells; mouse, in vivo",none
same,size of residual tumor,MB49 tumor cells; residual tumor necrotic,1 cm (necrotic)
"NC1(C(=O)O)CC2CCC1C2 (centres unmarked) [BCH, 2-amino-2-norborane-carboxylic acid]",total tryptophan transport still available,[2]; system L inhibited by 8 mM BCH,30-50%
same,effectiveness as competitor for tryptophan uptake compared with phenylalanine,[2],even less effective competitors
N[C@@H](Cc1c[nH]c2ccc(O)cc12)C(=O)O [L-5-hydroxytryptophan],autoimmune or adverse illness reported,[1],high frequency of a scleroderma-like illness
N[C@@H](Cc1ccc(O)cc1)C(=O)O [Tyrosine],effectiveness as competitor for tryptophan uptake compared with phenylalanine,[2],even less effective competitors
CC(C)C[C@H](N)C(=O)O [leucine],effectiveness as competitor for tryptophan uptake compared with phenylalanine,[2],even less effective competitors
N[C@@H](Cc1ccccc1)C(=O)O [phenylalanine],inhibition of tryptophan uptake by competing unlabeled amino acid,"[2]; 8 mM each, sodium-independent, FIG. 8B",could not fully block
N[C@@H](Cc1c[nH]c2ccccc12)C(=O)O [tryptophan],initial rate of tryptophan elimination,MCSF-derived macrophages [3],"up to 20,000 pmol/10^6 cells/hr"
same,autoimmune or adverse illness reported,[1],multiple autoimmune disorders
same,EC50,"T cells; Homo sapiens, T-cell, 72 h, read-out: half-maximal concentration for T cell proliferation",~500 nM
same,concentration sufficient to initiate low but readily detectable T cell proliferation,T cells; tryptophan in conditioned medium,50 nM
same,reversal of suppression by supplemental tryptophan,IDO [4]; high seeding density (2x10^5/well),remained able to suppress
same,reversal of suppression by supplemental tryptophan,IDO [4]; low seeding density (5x10^4/well),effectively reversed suppression
"IFNγ: recombinant interferon gamma, inducer of IDO",IFNγ concentration at which significant response occurred,MCSF-derived macrophages [5]; in the presence of CD40L,≥ 1 U/ml
same,concentration required for maximal induction of tryptophan degradation,"MCSF-derived macrophages [5]; recombinant IFNγ alone, 24 hrs",≥ 100 U/ml
"CD40L: recombinant CD40L prepared as a homo-trimer to signal via CD40 in soluble form (protein, UniProt P29965 47-261, looked up, extracellular domain soluble homo-trimer, recombinant CD40L prepared as a homo-trimer to signal via CD40 in soluble form) extracellular domain: HRRLDKIEDERNLHEDFVFMKTIQRCNTGERSLSLLNCEEIKSQFEGFVKDIMLNKEETKKENSFEMQKGDQNPQIAAHVISEASSKTTSVLQWAEKGYYTMSNNLVTLENGKQLTVKRQGLYYIYAQVTFCSNREASSQAPFIASLCLKSPGRFERILLRAANTHSSAKPCGQQSIHLGGVFELQPGASVFVNVTDPSQVSHGTGFTSFGLLKL",effect on enzyme activity,MCSF-derived macrophages [5]; CD40L alone,little effect
same,shift of the dose-response curve of IFNγ,MCSF-derived macrophages [5]; CD40L combined with IFNγ,one to two orders of magnitude
"IFNγ: recombinant interferon gamma, inducer of IDO (protein, UniProt P01579 24-161, looked up) Interferon gamma: QDPYVKEAENLKKYFNAGHSDVADNGTLFLGILKNWKEESDRKIMQSQIVSFYFKLFKNFKDDQSIQKSVETIKEDMNVKFFNSNKKKRDDFEKLTNYSVTDLNVQRKAIHELIQVMAELSPAAKTGKRKRSQMLFRG",reduction in tumor tryptophan compared to controls,IDO [6],approximately 80%
